Molecular target: T1, RetSDISMED2 (PaRetSp); RetS (residues 41-185) (Pseudomonas aeruginosa, UniProt Q9HUV7)
T1 sequence (Q9HUV7 41-185): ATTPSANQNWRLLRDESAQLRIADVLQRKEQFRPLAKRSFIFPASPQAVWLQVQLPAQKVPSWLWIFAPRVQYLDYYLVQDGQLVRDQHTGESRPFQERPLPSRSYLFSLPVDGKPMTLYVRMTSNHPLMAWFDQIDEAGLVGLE
Experiment: isothermal titration calorimetry
Type: binding

Row | Kd [nM] | SMILES
1 | ~3600 | CCCCc1oc2ccc(NS(C)(=O)=O)cc2c1C(=O)c1ccc(OCCCN(CCCC)CCCC)cc1 [dronedarone]
2 | ~1000 | NC[C@H](O)c1ccc(O)c(O)c1 [norepinephrine]
